Patent publication US8933018B2, “Boron containing polybasic bacterial efflux pump inhibitors and therapeutic uses thereof” (priority 2011, dated 2015)

System: P. aeruginosa, PAM1723, overexpressing the MexAB-OprM efflux pump
Type: cell-based, Pseudomonas aeruginosa
Conditions: lowest EPI concentration giving antibacterial activity with levofloxacin at 1/8 of its MIC, MHB, 20 h at 35° C.
Protocol: All EPI compounds were readily soluble in water and stock solutions were prepared at a final concentration of 10 mg/ml. Stock solutions were further diluted, according to the needs of the particular assay, in Mueller Hinton Broth (MHB). Stock solution was stored at […].
The checkerboard assay was performed in microtiter plates. […] EPIs were diluted in the y-axis, each row containing a single concentration of an EPI. […] The assay was performed in MHB with a final bacterial inoculum of 5 times 10^5 CFU/ml (from an early-log phase culture). Microtiter plates were incubated during 20 h at 35° C. and were read using a microtiter plate reader (Molecular Devices) at 650 nm as well as visual observation using a microtiter plate-reading mirror.

| Structure (SMILES) | MPC8 (Minimum Potentiating Concentration) |
| --- | --- |
| NCCN(CCN)C(=O)CC[C@H](N)C(=O)N[C@H](CCc1ccc(C(F)(F)F)cc1)C(=O)Nc1cc(B(O)O)ccc1F [Compound 25, 3-((R)-2-((S)-2-amino-5-(bis(2-aminoethyl)amino)-5-oxopentanamido)-4-(4-(trifluoromethyl)phenyl)butanamido)-4-fluorophenylboronic acid] | B (B = MPC8 of 2.5 μg/ml to less than 10 μg/mL.) |
| CC1(C)OB(O)c2cc(NC(=O)[C@@H](CCc3ccc(C(F)(F)F)cc3)NC(=O)[C@@H](N)CCC(=O)N(CCN)CCN)ccc21 [Compound 26, (S)-2-amino-N5,N5-bis(2-aminoethyl)-N1-((R)-1-(1-hydroxy-3,3-dimethyl-1,3-dihydrobenzo[c][1,2]oxaborol-6-ylamino)-1-oxo-4-(4-(trifluoromethyl)phenyl)butan-2-yl)pentanediamide] | A (A = MPC8 of less than 2.5 μg/mL.) |
| CC1(C)OB(O)c2cc(NC(=O)[C@@H](CCc3ccc(C(F)(F)F)cc3)NC(=O)[C@@H](N)CCC(=O)NCC(O)(CN)CN)ccc21 [Compound 27, (S)-2-amino-N5-(3-amino-2-(aminomethyl)-2-hydroxypropyl)-N1-((R)-1-(1-hydroxy-3,3-dimethyl-1,3-dihydrobenzo[c][1,2]oxaborol-6-ylamino)-1-oxo-4-(4-(trifluoromethyl)phenyl)butan-2-yl)pentanediamide] | B (B = MPC8 of 2.5 μg/ml to less than 10 μg/mL.) |
| NCCN(CCN)C(=O)CC[C@H](N)C(=O)N[C@H](CCc1ccc(C(F)(F)F)cc1)C(=O)Nc1cc(B(O)O)cc(F)c1F [Compound 28, 3-((R)-2-((S)-2-amino-5-(bis(2-aminoethyl)amino)-5-oxopentanamido)-4-(4-(trifluoromethyl)phenyl)butanamido)-4,5-difluorophenylboronic acid] | A (A = MPC8 of less than 2.5 μg/mL.) |
| NCCN(CCN)C(=O)CC[C@H](N)C(=O)N[C@H](CCc1ccc(C(F)(F)F)cc1)C(=O)Nc1ccc(B(O)O)c(F)c1 [Compound 29, 4-((R)-2-((S)-2-amino-5-(bis(2-aminoethyl)amino)-5-oxopentanamido)-4-(4-(trifluoromethyl)phenyl)butanamido)-2-fluorophenylboronic acid] | B (B = MPC8 of 2.5 μg/ml to less than 10 μg/mL.) |
| NCCN(CCN)C(=O)CC[C@H](N)C(=O)N[C@H](CCc1ccc(C(F)(F)F)cc1)C(=O)Nc1cc(B(O)O)c(F)cc1F [Compound 30, 5-((R)-2-((S)-2-amino-5-(bis(2-aminoethyl)amino)-5-oxopentanamido)-4-(4-(trifluoromethyl)phenyl)butanamido)-2,4-difluorophenylboronic acid] | C (C = MPC8 of 10 μg/mL or greater.) |
| NCCN(CCN)C(=O)CC[C@H](N)C(=O)N[C@H](CCc1ccc(C(F)(F)F)cc1)C(=O)Nc1cc2c(c(C(F)(F)F)c1)COB2O [Compound 31, (S)-2-amino-N5,N5-bis(2-aminoethyl)-N1-((R)-1-(1-hydroxy-4-(trifluoromethyl)-1,3-dihydrobenzo[c][1,2]oxaborol-6-ylamino)-1-oxo-4-(4-(trifluoromethyl)phenyl)butan-2-yl)pentanediamide] | B (B = MPC8 of 2.5 μg/ml to less than 10 μg/mL.) |
| NCCN(CCN)C(=O)CC[C@H](N)C(=O)N[C@H](CCc1ccc(C(F)(F)F)cc1)C(=O)Nc1ccc(F)c(B(O)O)c1 [Compound 32, 5-((R)-2-((S)-2-amino-5-(bis(2-aminoethyl)amino)-5-oxopentanamido)-4-(4-(trifluoromethyl)phenyl)butanamido)-2-fluorophenylboronic acid] | B (B = MPC8 of 2.5 μg/ml to less than 10 μg/mL.) |
| NCCN(CCN)C(=O)CC[C@H](N)C(=O)N[C@H](CCc1ccc(C(F)(F)F)cc1)C(=O)Nc1cc(F)cc(B(O)O)c1 [Compound 33, 3-((R)-2-((S)-2-amino-5-(bis(2-aminoethyl)amino)-5-oxopentanamido)-4-(4-(trifluoromethyl)phenyl)butanamido)-5-fluorophenylboronic acid] | A (A = MPC8 of less than 2.5 μg/mL.) |
| NCCN(CCN)C(=O)CC[C@H](N)C(=O)N[C@H](CCc1ccc(C(F)(F)F)cc1)C(=O)Nc1cc(F)c(F)c(B(O)O)c1 [Compound 34, 5-((R)-2-((S)-2-amino-5-(bis(2-aminoethyl)amino)-5-oxopentanamido)-4-(4-(trifluoromethyl)phenyl)butanamido)-2,3-difluorophenylboronic acid] | C (C = MPC8 of 10 μg/mL or greater.) |
| NCCN(CCN)C(=O)CC[C@H](N)C(=O)N[C@H](CCc1ccc(C(F)(F)F)cc1)C(=O)Nc1ccc(B(O)O)cc1F [Compound 35, 4-((R)-2-((S)-2-amino-5-(bis(2-aminoethyl)amino)-5-oxopentanamido)-4-(4-(trifluoromethyl)phenyl)butanamido)-3-fluorophenylboronic acid] | B (B = MPC8 of 2.5 μg/ml to less than 10 μg/mL.) |
| NCCN(CCN)C(=O)CC[C@H](N)C(=O)N[C@H](CCc1ccc(C(F)(F)F)cc1)C(=O)NC[C@@H]1OB(O)c2ccccc21 [Compound 37, (S)-2-amino-N5,N5-bis(2-aminoethyl)-N1-((R)-1-(((R)-1-hydroxy-1,3-dihydrobenzo[c][1,2]oxaborol-3-yl)methylamino)-1-oxo-4-(4-(trifluoromethyl)phenyl)butan-2-yl)pentanediamide] | A (A = MPC8 of less than 2.5 μg/mL.) |
| CC1(C)OB(O)c2cc(NC(=O)[C@@H](CCc3ccc(C(F)(F)F)cc3)NC(=O)[C@@H](N)CCC(=O)N[C@@H]3C[C@H](N)C[C@H](N)C3)ccc21 [Compound 38, (S)-2-amino-N5-((1s,3R,5S)-3,5-diaminocyclohexyl)-N1-((R)-1-(1-hydroxy-3,3-dimethyl-1,3-dihydrobenzo[c][1,2]oxaborol-6-ylamino)-1-oxo-4-(4-(trifluoromethyl)phenyl)butan-2-yl)pentanediamide] | A (A = MPC8 of less than 2.5 μg/mL.) |
| CC1(C)OB(O)c2cc(NC(=O)[C@@H](CCc3ccc(C(F)(F)F)cc3)NC(=O)[C@@H](N)CCC(=O)NC(CN)CN)ccc21 [Compound 39, (S)-2-amino-N^5-(1,3-diaminopropan-2-yl)-N^1-((R)-1-(1-hydroxy-3,3-dimethyl-1,3-dihydrobenzo[c][1,2]oxaborol-6-ylamino)-1-oxo-4-(4-(trifluoromethyl)phenyl)butan-2-yl)pentanediamide] | A (A = MPC8 of less than 2.5 μg/mL.) |
| CC1(C)OB(O)c2cc(NC(=O)[C@@H](CCc3ccc(C(F)(F)F)cc3)NC(=O)[C@@H](N)CCC(=O)N(C[C@@H](O)CN)C[C@@H](O)CN)ccc21 [Compound 40, (S)-2-amino-N^5,N^5-bis((S)-3-amino-2-hydroxypropyl)-N^1-((R)-1-(1-hydroxy-3,3-dimethyl-1,3-dihydrobenzo[c][1,2]oxaborol-6-ylamino)-1-oxo-4-(4-(trifluoromethyl)phenyl)butan-2-yl)pentanediamide] | B (B = MPC8 of 2.5 μg/ml to less than 10 μg/mL.) |
